The results in this text go back to patent US9403796B2, “Amidomethyl-substituted oxindole derivatives and the use thereof for the treatment of vasopressin-dependent illnesses” (AbbVie Deutschland GmbH & Co. KG, priority 2007, dated 2016).

Each structure is given as a SMILES string.

Data set [1] concerns the target T1, human vasopressin V1b receptor (Homo sapiens, UniProt P47901).
T1 construct: expressed in transfected cells; host or cells: CHO-K1 (cell line hV1b_3H2_CHO), membrane preparation
T1 sequence (P47901 1-424): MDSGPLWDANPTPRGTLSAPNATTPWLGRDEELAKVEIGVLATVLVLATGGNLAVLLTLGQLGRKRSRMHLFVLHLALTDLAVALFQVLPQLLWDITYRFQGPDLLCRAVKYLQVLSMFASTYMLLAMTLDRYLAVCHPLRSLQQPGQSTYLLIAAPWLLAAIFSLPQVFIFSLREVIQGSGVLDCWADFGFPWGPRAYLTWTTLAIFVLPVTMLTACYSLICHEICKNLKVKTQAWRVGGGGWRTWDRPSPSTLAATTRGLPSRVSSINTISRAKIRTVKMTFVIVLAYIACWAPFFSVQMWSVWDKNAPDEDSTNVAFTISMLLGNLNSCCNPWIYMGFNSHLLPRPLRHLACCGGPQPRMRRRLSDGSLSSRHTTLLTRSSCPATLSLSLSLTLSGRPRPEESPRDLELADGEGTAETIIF
As to the kind of experiment: Vasopressin V1b receptor binding assay. The note with it: CHO-K1 membranes, 3H-AVP displacement. The method, then: The substance concentration was further diluted 1:5 in the assay mixture (2% DMSO in the mixture).
The nonspecific binding was determined with […] (Bachem #H1780). All determinations were carried out as triplicate determinations.

Data set [2] is described as follows: Determination of the microsomal half-life / microsomal clearance. It is filed as in vitro ADME. The note with it: pH 7.4; human liver microsomes, 0.5 μM test substance. As to the method: The metabolic stability of the compounds of the invention was determined in the following assay.
The test substances were incubated in a concentration of 0.5 μM as follows:
0.5 μM test substance are preincubated together with liver microsomes from different species (from rat, human or other species) (0.25 mg of microsomal protein/ml) in 0.05 M potassium phosphate buffer of pH 7.4 in microtiter plates at 37° C. for 5 min. The reaction is started by adding NADPH (1 mg/mL). After 0, 5, 10, 15, 20 and 30 min, 50 μl aliquots are removed, and the reaction is immediately stopped and cooled with the same volume of acetonitrile. The samples are frozen until analyzed. The remaining concentration of undegraded test substance is determined by MSMS. The half-life (T½) is determined from the gradient of the signal of test substance/unit time plot, it being possible to calculate the half-life of the test substance, assuming first order kinetics, from the decrease in the concentration of the compound with time. The microsomal clearance (mCl) is calculated from mCl=In2/T½/(content of microsomal protein in mg/ml)×1000 [ml/min/mg] (modified from references: Di, The Society for Biomolecular Screening, 2003, 453-462; Obach, DMD, 1999 vol. 27. N 11, 1350-1359).
On the technique in general: Liver microsomes are vesicles of endoplasmic reticulum, rich in cytochrome P450 enzymes.

For data set [3], the target named is human vasopressin V1a receptor (Homo sapiens, UniProt P37288). As to the kind of experiment: Vasopressin V1a receptor binding assay. The note with it: selectivity quotient, human V1a vs human V1b.
Sequence of human vasopressin V1a receptor (P37288 whole entry): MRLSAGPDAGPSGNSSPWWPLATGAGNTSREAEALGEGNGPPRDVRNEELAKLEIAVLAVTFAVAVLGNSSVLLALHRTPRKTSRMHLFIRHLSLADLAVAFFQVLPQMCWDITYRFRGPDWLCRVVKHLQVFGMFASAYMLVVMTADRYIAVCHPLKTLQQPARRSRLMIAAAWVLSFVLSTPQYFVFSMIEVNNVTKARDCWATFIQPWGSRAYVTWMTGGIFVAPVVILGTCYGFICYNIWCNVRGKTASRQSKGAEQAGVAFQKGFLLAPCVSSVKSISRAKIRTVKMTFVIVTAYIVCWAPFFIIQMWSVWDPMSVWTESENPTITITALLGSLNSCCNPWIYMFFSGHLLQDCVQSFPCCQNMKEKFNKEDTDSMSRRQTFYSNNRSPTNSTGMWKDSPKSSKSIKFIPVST

As for `CCOc1ncccc1C1(CC(=O)N2CCN(C3CCN(C)CC3)CC2)C(=O)N(S(=O)(=O)c2ccccc2)c2ccc(C#N)cc21.O=C(O)C(F)(F)F` (racemic) [Example 7, (±)-1-Phenylsulfonyl-3-(2-ethoxypyridin-3-yl)-3-{2-[4-(1-methylpiperidin-4-yl)piperazin-1-yl]-2-oxoethyl}-2-oxo-2,3-dihydro-1H-indole-5-carbonitrile, trifluoroacetic acid salt], the Ki in data set [1] is 3 to 30 nM. This compound also registered a microsomal CLint at 0.5 μM in data set [2] of under 100 µL/min/mg. Moreover, the “Ki(h-V1a)/Ki(h-V1b)” value in data set [3] is reported as “+++ (>30)”.
Taken in the same sequence, the figures for `CCOc1ncccc1C1(CC(=O)N2CCC(N3CCN(C)CC3)CC2)C(=O)N(S(=O)(=O)c2ccc(OC)cc2OC)c2ccc(C#N)cc21.O=C(O)C(F)(F)F` (racemic) [Example 6, (±)-1-(2,4-Dimethoxyphenylsulfonyl)-3-(2-ethoxypyridin-3-yl)-3-{2-[4-(4-methylpiperazin-1-yl)piperidin-1-yl]-2-oxoethyl}-2-oxo-2,3-dihydro-1H-indole-5-carbonitrile, trifluoroacetic acid salt] were under 3 nM, under 100 µL/min/mg and “+++ (>30)”.
In the same order, the values of `CCOc1ncccc1C1(CC(=O)N2CCC(N3CCN(CC)CC3)CC2)C(=O)N(S(=O)(=O)c2ccccc2OC)c2ccc(C#N)cc21.O=C(O)C(F)(F)F` (racemic) [Example 4, (±)-3-(2-Ethoxypyridin-3-yl)-3-{2-[4-(4-ethylpiperazin-1-yl)piperidin-1-yl]-2-oxoethyl}-1-(2-methoxyphenylsulfonyl)-2-oxo-2,3-dihydro-1H-indole-5-carbonitrile, trifluoroacetic acid salt] are 3 to 30 nM, 100 to 200 µL/min/mg and “+++ (>30)”.
Taken in the same sequence, the figures for `CCOc1ncccc1C1(CC(=O)N2CCN(C3CCN(C)CC3)CC2)C(=O)N(S(=O)(=O)c2ccc(OC)cc2OC)c2ccc(C#N)cc21.O=C(O)C(F)(F)F` (racemic) [Example 9, (±)-1-(2,4-Dimethoxyphenylsulfonyl)-3-(2-ethoxypyridin-3-yl)-3-{2-[4-(1-methylpiperidin-4-yl)piperazin-1-yl]-2-oxoethyl}-2-oxo-2,3-dihydro-1H-indole-5-carbonitrile, trifluoroacetic acid salt] were under 3 nM, under 100 µL/min/mg and “+++ (>30)”.
`CCOc1ncccc1C1(CC(=O)N2CCC(N3CCN(CC)CC3)CC2)C(=O)N(S(=O)(=O)c2ccccc2)c2ccc(C#N)cc21.O=C(O)C(F)(F)F` (racemic) [Example 3, (±)-1-Phenylsulfonyl-3-(2-ethoxypyridin-3-yl)-3-{2-[4-(4-ethylpiperazin-1-yl)piperidin-1-yl]-2-oxoethyl}-2-oxo-2,3-dihydro-1H-indole-5-carbonitrile, trifluoroacetic acid salt] displayed a Ki in data set [1] of 3 to 30 nM. The compound further yielded a microsomal CLint at 0.5 μM in data set [2] of under 100 µL/min/mg. Further, the “Ki(h-V1a)/Ki(h-V1b)” value in data set [3] was “+++ (>30)”.
In the same order, the values of `CCOc1ncccc1C1(CC(=O)N2CCN(C3CCN(C)CC3)CC2)C(=O)N(S(=O)(=O)c2ccccc2OC)c2ccc(C#N)cc21.O=C(O)C(F)(F)F` (racemic) [Example 8, (±)-3-(2-Ethoxypyridin-3-yl)-1-(2-methoxyphenylsulfonyl)-3-{2-[4-(1-methylpiperidin-4-yl)-piperazin-1-yl]-2-oxoethyl}-2-oxo-2,3-dihydro-1H-indole-5-carbonitrile, trifluoroacetic acid salt] are 3 to 30 nM, under 100 µL/min/mg and “+++ (>30)”.
In the case of `CCOc1ncccc1C1(CC(=O)N2CCC(N3CCN(CC)CC3)CC2)C(=O)N(S(=O)(=O)c2ccc(OC)cc2OC)c2ccc(C#N)cc21.O=C(O)C(F)(F)F` (racemic) [Example 2, (±)-1-(2,4-Dimethoxyphenylsulfonyl)-3-(2-ethoxypyridin-3-yl)-3-{2-[4-(4-ethylpiperazin-1-yl)piperidin-1-yl]-2-oxoethyl}-2-oxo-2,3-dihydro-1H-indole-5-carbonitrile trifluoroacetic acid salt], in data set [1], the Ki is under 3 nM. The compound also displayed a microsomal CLint at 0.5 μM in data set [2] of under 100 µL/min/mg. Besides, in data set [3], the “Ki(h-V1a)/Ki(h-V1b)” value is “+++ (>30)”.
In the same order, the values of `CCOc1ncccc1C1(CC(=O)N2CCC(N3CCN(C)CC3)CC2)C(=O)N(S(=O)(=O)c2ccccc2)c2ccc(C#N)cc21.O=C(O)C(F)(F)F` (racemic) [Example 1, (±)-1-Phenylsulfonyl-3-(2-ethoxypyridin-3-yl)-3-{2-[4-(4-methylpiperazin-1-yl)piperidin-1-yl]-2-oxoethyl}-2-oxo-2,3-dihydro-1H-indole-5-carbonitrile, trifluoroacetic acid salt] are 3 to 30 nM, under 100 µL/min/mg and “++ (15-30)”.
In the same order, the values of `CCOc1ncccc1C1(CC(=O)N2CCN(C3CCN(CC)CC3)CC2)C(=O)N(S(=O)(=O)c2ccc(OC)cc2OC)c2ccc(C#N)cc21` (single isomer, unassigned; (-)) [Example 10B, (−)1-(2,4-Dimethoxyphenylsulfonyl)-3-(2-ethoxypyridin-3-yl)-3-{2-[4-(1-ethylpiperidin-4-yl)-piperazin-1-yl]-2-oxoethyl}-2-oxo-2,3-dihydro-1H-indole-5-carbonitrile] are under 3 nM, under 100 µL/min/mg and “+++ (>30)”.
Taken in the same sequence, the figures for `CCOc1ncccc1C1(CC(=O)N2CCC(N3CCN(C)CC3)CC2)C(=O)N(S(=O)(=O)c2ccccc2OC)c2ccc(C#N)cc21.O=C(O)C(F)(F)F` (racemic) [Example 5, (±)-3-(2-Ethoxypyridin-3-yl)-1-(2-methoxyphenylsulfonyl)-3-{2-[4-(4-methylpiperazin-1-yl)-piperidin-1-yl]-2-oxoethyl}-2-oxo-2,3-dihydro-1H-indole-5-carbonitrile, trifluoroacetic acid] were 3 to 30 nM, 100 to 200 µL/min/mg and “++ (15-30)”.

The term Ki denotes a dissociation constant, usually derived from enzyme kinetics or from competition with a known ligand. A high value points to a looser hold on the target. Broadly, the microsomal CLint is a measure of how fast metabolising enzymes remove a compound, apart from limits set by blood flow. A lower microsomal CLint goes with slow turnover.
